Data reported in publication PMC5218480 (PLoS ONE, 2017).

Test system: MV-4-11 cells
Assay: Gene expression microarray analysis (Affymetrix PrimeView) and GSEA
Assay type: cell-based, human
Set-up: RFU PODN (11730768_x_at) / Fold change /veh PODN (11730768_x_at) / RFU LINC00158 (11744669_a_at) / Fold change /veh LINC00158 (11744669_a_at) / RFU DUSP10 (11751237_a_at) / Fold change /veh DUSP10 (11751237_a_at) / RFU ID3 (11757404_x_at) / Fold change /veh ID3 (11757404_x_at) / RFU PLEKHG5 (11737974_s_at) / Fold change /veh PLEKHG5 (11737974_s_at) / RFU LRRC4B (11730491_at) / Fold change /veh LRRC4B (11730491_at) / RFU GIMAP4 (11747438_a_at) / Fold change /veh GIMAP4 (11747438_a_at) / RFU KRT8 (11758183_x_at) / Fold change /veh KRT8 (11758183_x_at) / RFU CNN1 (11734310_a_at) / Fold change /veh CNN1 (11734310_a_at) / RFU VPS37D (11726825_at) / Fold change /veh VPS37D (11726825_at) / RFU C10orf10 (11716522_x_at) / Fold change /veh C10orf10 (11716522_x_at) / RFU KIR2DL2 /// KIR2DL4 /// KIR2DL5A /// KIR2DL5B /// KIR2DS1 /// KIR2DS2 /// KIR2DS3 /// KIR2DS4 /// KIR3DL3 /// KIR3DL3 /// KIR3DS1 (11738374_at) / Fold change /veh KIR2DL2 /// KIR2DL4 /// KIR2DL5A /// KIR2DL5B /// KIR2DS1 /// KIR2DS2 /// KIR2DS3 /// KIR2DS4 /// KIR3DL3 /// KIR3DL3 /// KIR3DS1 (11738374_at) / RFU C1QL1 (11718748_at) / Fold change /veh C1QL1 (11718748_at) / RFU TMPRSS4 (11747572_a_at) / Fold change /veh TMPRSS4 (11747572_a_at) / RFU HAMP (11756126_x_at) / Fold change /veh HAMP (11756126_x_at) / RFU RNFT2 (11725882_a_at) / Fold change /veh RNFT2 (11725882_a_at) / RFU NR4A2 (11747474_a_at) / Fold change /veh NR4A2 (11747474_a_at) / RFU ABCC12 (11746883_a_at) / Fold change /veh ABCC12 (11746883_a_at) / RFU TMEM136 (11760407_x_at) / Fold change /veh TMEM136 (11760407_x_at) / RFU CLDN22 /// WWC2 (11732394_at) / Fold change /veh CLDN22 /// WWC2 (11732394_at) / RFU HLA-DPB1 (11760878_x_at) / Fold change /veh HLA-DPB1 (11760878_x_at) / RFU SPINT1 (11716480_a_at) / Fold change /veh SPINT1 (11716480_a_at) / RFU GAP43 (11754022_s_at) / Fold change /veh GAP43 (11754022_s_at) / RFU A4GNT (11735810_at) / Fold change /veh A4GNT (11735810_at) / RFU PRB3 (11715151_x_at) / Fold change /veh PRB3 (11715151_x_at) / RFU TUBB4B (11761932_at) / Fold change /veh TUBB4B (11761932_at) / RFU CAPN14 (11732068_a_at) / Fold change /veh CAPN14 (11732068_a_at) / RFU TMCC2 (11721928_a_at) / Fold change /veh TMCC2 (11721928_a_at) / RFU IRGQ (11745062_a_at) / Fold change /veh IRGQ (11745062_a_at) / RFU FAM174B (11720279_a_at) / Fold change /veh FAM174B (11720279_a_at) / RFU TMPRSS4 (11748680_a_at) / Fold change /veh TMPRSS4 (11748680_a_at) / RFU FAM212B (11763350_a_at) / Fold change /veh FAM212B (11763350_a_at) / RFU PLEKHG5 (11743358_a_at) / Fold change /veh PLEKHG5 (11743358_a_at) / RFU ZSCAN30 (11745921_a_at) / Fold change /veh ZSCAN30 (11745921_a_at) / RFU CMKLR1 (11741424_a_at) / Fold change /veh CMKLR1 (11741424_a_at) / RFU LOC101060620 /// MAPK8IP1 (11723275_at) / Fold change /veh LOC101060620 /// MAPK8IP1 (11723275_at) / RFU SPTSSB (11747773_x_at) / Fold change /veh SPTSSB (11747773_x_at) / RFU PRSS12 (11739890_at) / Fold change /veh PRSS12 (11739890_at) / RFU BIN1 (11741810_x_at) / Fold change /veh BIN1 (11741810_x_at) / RFU WNT11 (11732464_a_at) / Fold change /veh WNT11 (11732464_a_at) / RFU C10orf10 (11716521_a_at) / Fold change /veh C10orf10 (11716521_a_at) / RFU C5orf56 (11738089_at) / Fold change /veh C5orf56 (11738089_at) / RFU CYB561 (11721691_x_at) / Fold change /veh CYB561 (11721691_x_at) / RFU ANKRD19P (11752326_a_at) / Fold change /veh ANKRD19P (11752326_a_at) / RFU OR2T12 /// OR2T33 /// OR2T8 (11738714_s_at) / Fold change /veh OR2T12 /// OR2T33 /// OR2T8 (11738714_s_at) / RFU VCAN (11748164_a_at) / Fold change /veh VCAN (11748164_a_at) / RFU JSRP1 (11732532_at) / Fold change /veh JSRP1 (11732532_at) / RFU KRTAP10-11 (11738290_x_at) / Fold change /veh KRTAP10-11 (11738290_x_at) / RFU MYO3A (11730013_a_at) / Fold change /veh MYO3A (11730013_a_at) / RFU EBF3 (11725865_a_at) / Fold change /veh EBF3 (11725865_a_at) / RFU CAMK2N1 (11719241_x_at) / Fold change /veh CAMK2N1 (11719241_x_at) / RFU C5orf56 (11738088_a_at) / Fold change /veh C5orf56 (11738088_a_at) / RFU OLFML3 (11715873_a_at) / Fold change /veh OLFML3 (11715873_a_at) / RFU LOC100653217 /// NTM (11731650_a_at) / Fold change /veh LOC100653217 /// NTM (11731650_a_at) / RFU MAPK11 (11762145_a_at) / Fold change /veh MAPK11 (11762145_a_at) / RFU FIZ1 (11724087_x_at) / Fold change /veh FIZ1 (11724087_x_at) / RFU OASL (11726364_x_at) / Fold change /veh OASL (11726364_x_at) / RFU SOX15 (11748057_x_at) / Fold change /veh SOX15 (11748057_x_at) / RFU CD79A (11719716_a_at) / Fold change /veh CD79A (11719716_a_at) / RFU HIST1H1D (11736915_at) / Fold change /veh HIST1H1D (11736915_at) / RFU CASKIN2 (11723855_a_at) / Fold change /veh CASKIN2 (11723855_a_at) / RFU LOC730098 (11760151_x_at) / Fold change /veh LOC730098 (11760151_x_at) / RFU OR4N2 (11742367_at) / Fold change /veh OR4N2 (11742367_at) / RFU PRRT2 (11749266_a_at) / Fold change /veh PRRT2 (11749266_a_at) / RFU SNX32 (11753110_a_at) / Fold change /veh SNX32 (11753110_a_at) / RFU CDHR5 (11726645_a_at) / Fold change /veh CDHR5 (11726645_a_at) / RFU RCAN1 (11760418_a_at) / Fold change /veh RCAN1 (11760418_a_at) / RFU FAM167A (11723789_a_at) / Fold change /veh FAM167A (11723789_a_at) / RFU FAM26E (11764081_at) / Fold change /veh FAM26E (11764081_at) / RFU ISYNA1 (11749810_s_at) / Fold change /veh ISYNA1 (11749810_s_at) / RFU ACY1 (11761880_at) / Fold change /veh ACY1 (11761880_at) / RFU 11764098_at / Fold change /veh 11764098_at / RFU SAMD14 (11745864_x_at) / Fold change /veh SAMD14 (11745864_x_at) / RFU NPB (11741838_a_at) / Fold change /veh NPB (11741838_a_at) / RFU TMPRSS6 (11731388_a_at) / Fold change /veh TMPRSS6 (11731388_a_at) / RFU KRTAP10-2 (11738614_at) / Fold change /veh KRTAP10-2 (11738614_at) / RFU ARHGAP8 /// PRR5-ARHGAP8 (11727945_x_at) / Fold change /veh ARHGAP8 /// PRR5-ARHGAP8 (11727945_x_at) / RFU KRTAP5-7 /// NADSYN1 (11734609_at) / Fold change /veh KRTAP5-7 /// NADSYN1 (11734609_at) / RFU RASL12 (11751679_a_at) / Fold change /veh RASL12 (11751679_a_at) / RFU CDKN2B (11736163_a_at) / Fold change /veh CDKN2B (11736163_a_at) / RFU PRF1 (11729649_at) / Fold change /veh PRF1 (11729649_at) / RFU, ZNF638 /// ZNF638-IT1 / Fold change vs veh, ZNF638 /// ZNF638-IT1 / RFU, PANK3 / Fold change vs veh, PANK3 / RFU, SH3YL1 / Fold change vs veh, SH3YL1 / RFU, ZEB2 / Fold change vs veh, ZEB2 / RFU, NRIP1 / Fold change vs veh, NRIP1 / RFU, PTTG1IP / Fold change vs veh, PTTG1IP / RFU, CAPN2 / Fold change vs veh, CAPN2 / RFU, MED14 / Fold change vs veh, MED14 / RFU, SNORA58 / Fold change vs veh, SNORA58 / RFU, C1orf63 / Fold change vs veh, C1orf63 / RFU, LRRFIP1 / Fold change vs veh, LRRFIP1 / RFU, NDUFAF7 / Fold change vs veh, NDUFAF7 / RFU, SLC12A2 / Fold change vs veh, SLC12A2 / RFU, IBTK / Fold change vs veh, IBTK / RFU, ESF1 / Fold change vs veh, ESF1 / Fold change vs veh, TMEM50B / RFU, TAOK1 / Fold change vs veh, TAOK1 / RFU, ACBD3 / Fold change vs veh, ACBD3 / RFU, TMA16 / Fold change vs veh, TMA16 / RFU, RWDD3 / Fold change vs veh, RWDD3 / RFU, BCAT1 / Fold change vs veh, BCAT1 / RFU, EDEM3 / Fold change vs veh, EDEM3 / RFU, TMEM33 / Fold change vs veh, TMEM33 / RFU, WDR75 / Fold change vs veh, WDR75 / RFU, AHCTF1 / Fold change vs veh, AHCTF1 / RFU, TFRC / Fold change vs veh, TFRC / RFU, ZDHHC17 / Fold change vs veh, ZDHHC17 / RFU, NOM1 / Fold change vs veh, NOM1 / RFU, ARL8B / Fold change vs veh, ARL8B / RFU, ZBTB11 / Fold change vs veh, ZBTB11 / RFU, TAMM41 / Fold change vs veh, TAMM41 / RFU, KIAA1704 /// LOC100996395 / Fold change vs veh, KIAA1704 /// LOC100996395 / RFU, ING1 / Fold change vs veh, ING1 / RFU, TRMT61B / Fold change vs veh, TRMT61B / RFU, FUBP3 / Fold change vs veh, FUBP3 / RFU, TP53 / Fold change vs veh, TP53 / RFU, TNKS2 / Fold change vs veh, TNKS2 / RFU, ZFP14 / Fold change vs veh, ZFP14 / RFU, ACTR2 / Fold change vs veh, ACTR2 / RFU, PPP3R1 / Fold change vs veh, PPP3R1 / RFU, PIK3R1 / Fold change vs veh, PIK3R1 / RFU, HNRNPA1 / Fold change vs veh, HNRNPA1 / RFU, RNF170 / Fold change vs veh, RNF170 / RFU, ZNF28 / Fold change vs veh, ZNF28 / RFU, RNGTT / Fold change vs veh, RNGTT / RFU, OGT / Fold change vs veh, OGT / RFU, BRD1 / Fold change vs veh, BRD1 / RFU, MARS / Fold change vs veh, MARS / RFU, ZNF655 / Fold change vs veh, ZNF655 / RFU, FAHD1 / Fold change vs veh, FAHD1 / RFU, BDP1 / Fold change vs veh, BDP1 / RFU, LRRCC1 / Fold change vs veh, LRRCC1 / RFU, ARID1A / Fold change vs veh, ARID1A / RFU, ZNF146 / Fold change vs veh, ZNF146 / RFU, ZNF330 / Fold change vs veh, ZNF330 / RFU, GPN3 / Fold change vs veh, GPN3 / RFU, C9orf123 / Fold change vs veh, C9orf123 / RFU, N4BP2L2 / Fold change vs veh, N4BP2L2 / RFU, ARFIP1 / Fold change vs veh, ARFIP1 / RFU, FAM179B / Fold change vs veh, FAM179B / RFU, BCL10 / Fold change vs veh, BCL10 / RFU, UHRF1BP1L / Fold change vs veh, UHRF1BP1L / RFU, BET1 / Fold change vs veh, BET1 / RFU, CNOT2 / Fold change vs veh, CNOT2 / RFU, ZNF268 / Fold change vs veh, ZNF268 / Fold change vs veh, ZNF507 / RFU, DGCR2 / Fold change vs veh, DGCR2 / RFU, WDSUB1 / Fold change vs veh, WDSUB1 / Fold change vs veh, HSP90B1 /// MIR3652 / RFU, ADSS / Fold change vs veh, ADSS / RFU, GK / Fold change vs veh, GK / RFU, ZNF148 / Fold change vs veh, ZNF148 / RFU, TAF9 / Fold change vs veh, TAF9 / RFU, SLC1A5 / Fold change vs veh, SLC1A5 / RFU, SLMO2 / Fold change vs veh, SLMO2 / RFU, ABCC4 / Fold change vs veh, ABCC4 / RFU, LOC101060439 /// RAP1B / Fold change vs veh, LOC101060439 /// RAP1B / RFU, RFX7 / Fold change vs veh, RFX7 / RFU, GTPBP10 / Fold change vs veh, GTPBP10 / RFU, CNEP1R1 / Fold change vs veh, CNEP1R1 / RFU, BIVM-ERCC5 /// ERCC5 / Fold change vs veh, BIVM-ERCC5 /// ERCC5 / RFU, ILF3 / Fold change vs veh, ILF3 / RFU 11762660_at / Fold change /veh 11762660_at / RFU VCAN (11757783_s_at) / Fold change /veh VCAN (11757783_s_at) / RFU DDX43 (11728927_at) / Fold change /veh DDX43 (11728927_at) / RFU KRT8 (11758188_x_at) / Fold change /veh KRT8 (11758188_x_at) / RFU NKD1 (11759106_at) / Fold change /veh NKD1 (11759106_at) / RFU SRD5A1 (11742802_a_at) / Fold change /veh SRD5A1 (11742802_a_at) / RFU TPSAB1 /// TPSB2 (11721975_s_at) / Fold change /veh TPSAB1 /// TPSB2 (11721975_s_at) / RFU GSTM3 (11746129_a_at) / Fold change /veh GSTM3 (11746129_a_at) / RFU IL23R (11737362_x_at) / Fold change /veh IL23R (11737362_x_at) / RFU TMEM51 (11727254_a_at) / Fold change /veh TMEM51 (11727254_a_at) / RFU PIWIL2 (11732686_x_at) / Fold change /veh PIWIL2 (11732686_x_at) / RFU ORM1 (11744905_x_at) / Fold change /veh ORM1 (11744905_x_at) / RFU CCDC152 (11743942_at) / Fold change /veh CCDC152 (11743942_at) / RFU ECM1 (11717891_a_at) / Fold change /veh ECM1 (11717891_a_at) / RFU IL23R (11748794_a_at) / Fold change /veh IL23R (11748794_a_at) / RFU TNFAIP8L3 (11732012_x_at) / Fold change /veh TNFAIP8L3 (11732012_x_at) / RFU MBOAT4 (11741988_at) / Fold change /veh MBOAT4 (11741988_at) / RFU 11764193_at / Fold change /veh 11764193_at / RFU TMEM53 (11763286_at) / Fold change /veh TMEM53 (11763286_at) / RFU MAGEB2 (11727129_at) / Fold change /veh MAGEB2 (11727129_at) / RFU TMEM200A (11744735_a_at) / Fold change /veh TMEM200A (11744735_a_at) / RFU CCDC152 (11751479_a_at) / Fold change /veh CCDC152 (11751479_a_at) / RFU FAM211A (11726209_a_at) / Fold change /veh FAM211A (11726209_a_at) / RFU RGS16 (11746705_a_at) / Fold change /veh RGS16 (11746705_a_at) / RFU VCAN (11755009_s_at) / Fold change /veh VCAN (11755009_s_at) / RFU RHOB (11743442_s_at) / Fold change /veh RHOB (11743442_s_at) / RFU RGS16 (11720943_a_at) / Fold change /veh RGS16 (11720943_a_at) / RFU RGS16 (11720944_at) / Fold change /veh RGS16 (11720944_at) / RFU, VPS4B / Fold change vs veh, VPS4B / RFU, CREB1 / Fold change vs veh, CREB1 / RFU, DNAJC13 / Fold change vs veh, DNAJC13 / RFU, GNAQ / Fold change vs veh, GNAQ / RFU, CDK5R1 / Fold change vs veh, CDK5R1 / RFU, ZRANB3 / Fold change vs veh, ZRANB3 / RFU, CUL4A / Fold change vs veh, CUL4A / RFU, CCNY / Fold change vs veh, CCNY / RFU, UFL1 / Fold change vs veh, UFL1 / RFU, COG3 / Fold change vs veh, COG3 / RFU, DIAPH2 / Fold change vs veh, DIAPH2 / RFU, SKA2 / Fold change vs veh, SKA2 / RFU, AFF3 / Fold change vs veh, AFF3 / RFU, LMF1 / Fold change vs veh, LMF1 / RFU, IPO11 / Fold change vs veh, IPO11 / RFU, DFFB / Fold change vs veh, DFFB / RFU, FOXP1 / Fold change vs veh, FOXP1 / RFU, CARD8 / Fold change vs veh, CARD8 / RFU, STRN3 / Fold change vs veh, STRN3 / RFU, ADK / Fold change vs veh, ADK / RFU, RASSF2 / Fold change vs veh, RASSF2 / RFU, WIPF1 / Fold change vs veh, WIPF1 / RFU, LARP1B / Fold change vs veh, LARP1B / RFU, RASA1 / Fold change vs veh, RASA1 / RFU, RB1 / Fold change vs veh, RB1 / RFU, PPFIA1 / Fold change vs veh, PPFIA1 / RFU, MAT2A / Fold change vs veh, MAT2A / RFU, CCT5 / Fold change vs veh, CCT5 / RFU, WDR92 / Fold change vs veh, WDR92 / RFU, CUX1 / Fold change vs veh, CUX1 / RFU, TTC7A / Fold change vs veh, TTC7A / RFU, TMEM135 / Fold change vs veh, TMEM135 / RFU, DEPTOR / Fold change vs veh, DEPTOR / RFU, CPM / Fold change vs veh, CPM / RFU, DNAJB6 / Fold change vs veh, DNAJB6 / RFU, CACNA2D3 / Fold change vs veh, CACNA2D3 / RFU, DTX4 / Fold change vs veh, DTX4 / RFU, TFCP2 / Fold change vs veh, TFCP2 / RFU, GMCL1 /// GMCL1P1 / Fold change vs veh, GMCL1 /// GMCL1P1 / RFU, AEBP2 / Fold change vs veh, AEBP2 / RFU, SNHG1 /// SNORD22 /// SNORD25 /// SNORD26 /// SNORD27 /// SNORD28 /// SNORD29 /// SNORD31 / Fold change vs veh, SNHG1 /// SNORD22 /// SNORD25 /// SNORD26 /// SNORD27 /// SNORD28 /// SNORD29 /// SNORD31 / Fold change (Aza/veh), C12orf56 (ProbeSet 11735607_a_at) / Fold change (ACY-1035/veh), C12orf56 (ProbeSet 11735607_a_at) / Fold change (Aza/veh), FGFR1OP (ProbeSet 11751329_s_at) / Fold change (ACY-1035/veh), FGFR1OP (ProbeSet 11751329_s_at) / Fold change (Aza/veh), VPS36 (ProbeSet 11739960_a_at) / Fold change (ACY-1035/veh), VPS36 (ProbeSet 11739960_a_at) / RFU SYPL1 (11715823_x_at) / Fold change /veh SYPL1 (11715823_x_at) / RFU IGFBP7 (11715501_s_at) / Fold change /veh IGFBP7 (11715501_s_at) / RFU REEP3 (11722064_at) / Fold change /veh REEP3 (11722064_at) / RFU IGLL1 (11728026_x_at) / Fold change /veh IGLL1 (11728026_x_at): dose or concentration left out as unconfirmed
Settings: MV-4-11 cells, 48 hours

## Nc1ccc(-c2cccs2)cc1NC(=O)c1ccc2c(c1)cc(C1CC1)n2CCN1CCOCC1 [ACY-1035]
  RFU FIZ1 (11724087_x_at): 31.13 RFU
